Results from patent US11330999B2 (MEMORIAL SLOAN KETTERING CANCER CENTER, priority 2017, dated 2022).

How the values were obtained:
[1] = Thermal equilibrium T2 at high field (14.1T), CPMG; format: physicochemical; details: for T2 Value (s) D2O: 95:5 D2O:H2O, 100 mM Tris pD 7.4; for T2 Value (s) H2O: 100% H2O, 100 mM Tris pH 7.4
Description: (§1) [5-^13C]-glutamine (Cambridge Isotope Laboratories), [^13C]-urea (Sigma Aldrich), [^13C, ^15N2]-urea (Sigma Aldrich), [6-^13C]-arginine (Cambridge Isotope Laboratories), [5-^13C, ^15N]-glutamine (24) (24, as described in Example 7) and [6-^13C, ^15N3]-arginine (21, as described in Example 2) were evaluated to determine thermal equilibrium T1 and T2. An aliquot of each compound was dissolved in 95:5 D2O:H2O containing 100 mM Tris pD 7.4 and 100% H2O containing 100 mM Tris pH 7.4. [^13C]-urea and [^13C, ^15N2]-urea were dissolved to a final concentration of 100 mM.
(§2) ^13C NMR spectra for each compound dissolved in 95:5 D2O:H2O and 100% H2O was obtained with a 14.1T ^13C NMR (Bruker, USA). For inversion recovery experiments, 13 to 15 different delay times between the 180° and 90° pulses, spanning 3T1, were sampled. Each spectrum was an average of 3 to 4 scans, and a 5T1 to 6T1 pre-scan wait time was used to allow re-polarization of carbon nuclear spins between scans. T2 values were measured using a Carr-Purcell-Meiboom-Gill (CPMG) sequence for each compound dissolved in 95:5 D2O:H2O and 100% H2O. A 10 ms (or 5 ms ^13C-urea samples) wait-time between 180° pulses was used, and signal was acquired at total echo times spanning 3T2. For both T1- and T2-relaxation curve fitting, spectra were imported into Mnova (Mestrelabs, USA) and the area under the curve (AUC) of the ^13C resonance of interest was integrated. AUC values were exported to Prism 7 (GraphPad Software, USA), plotted against time on the x-axis, and data points were fit to the Bloch equations for T1 and T2.
(§3) When each compound was dissolved in D2O, the exchangeable protons on the nitrogen atoms rapidly exchange with deuterium in the solvent. As described in Table 1, at high field, each compound having protons exchanged with deuterium extended the T1 of ^13C relaxation times directly bonded to —NH or —NH2 residues, respectively. This effect is further illustrated for [6-^13C]-/[6-^13C, ^15N3]-arginine in FIG. 7.

[2] = Thermal equilibrium T1 at high field (14.1T), inversion recovery; format: physicochemical; details: for T1 Value (s) D2O: 95:5 D2O:H2O, 100 mM Tris pD 7.4; for T1 Value (s) H2O: 100% H2O, 100 mM Tris pH 7.4
Description: as §1, §2, §3

[3] = Hyperpolarized T1 of arginine guanidine-carbon at 1T; format: physicochemical; details: 30° flip angle, 3 s repetition time, average of two
Description: To confirm the reduction of quadrupolar relaxation at the guanidine-carbon by ^15N enrichment, ^13C NMR spectra for unlabeled and [6-^13C, 6-^15N3]-L-Arginine-HCl (21, as described in Example 2) was obtained with a 14.1T ^13C NMR. The full width half max (FWHM) of the guanidine-carbon peak was measured, and the FWHM of the carbon-1 peak was used as an internal standard. For hyperpolarized T1 measurements compound 21 was mixed with 1 equivalent HCl and dissolved to a final concentration of 1.3 M in 2:3 H2O:glycerol with 15 mM of a OX063 radical. The sample was polarized for at least 1 h in a SpinSolve polarizer. […] This was performed twice and the calculated T1 values were averaged.
The FWHM of the guanidine-carbon peak for natural abundance and compound 21 was measured to be 1.4 Hz and 1.0 Hz, respectively, and the FWHM of carbon-1 was 0.9 Hz for both compounds (FIG. 5B).

[4] = Hyperpolarized T1 at 1T after dissolution in buffered H2O or D2O; format: physicochemical; details: for Hyperpolarized T1 Value (s) D2O: dissolution in 100 mM Tris 1 mM EDTA pD 7.4 D2O; for Hyperpolarized T1 Value (s) H2O: dissolution in 100 mM Tris 1 mM EDTA pH 7.4 H2O
Description: Each compound was prepared with a different formulation, as follows: [5-^13C]- and [5-^13C, ^15N]-glutamine was mixed with 1.1 equivalent HCl and dissolved to a final concentration of 1.5 Min H2O:DMSO (65:35). [^13C]— and [^13C, ^15N2]-urea was dissolved to a final concentration of 6M in glycerol. [6-^13C]- and [6-^13C, ^15N3]-arginine was mixed with 1 equivalent HCl and dissolved to a final concentration of 3.2M in H2O. Each of these preparations also contained OX063 radical (General Electric, UK) dissolved to a final concentration of 15 mM. [^13C]—/[^13C, ^15N2]-urea and [6-^13C]-/[6-^13C, ^15N3]-arginine samples were polarized in a 3.35T SpinLab Polarizer (General Electric, UK) for 1.5 hours (0.83K, 93.98 GHz), while: [5-^13C]-/[^13C, ^15N]-glutamine samples were polarized in a 5T SpinLab Polarizer for 2 hours (0.83K, 93.98 GHz). Following polarization, the HP substrate was ejected from the polarizer via rapid dissolution, during which a superheated solution of 100 mM Tris 1 mM EDTA in pH 7.4 H2O or pD 7.4 D2O is run through the sample vial to dissolve the polarized substrate and eject it into a pre-chilled glass vial (−20° C.).

[5] = tested on: U251 cells; experiment: CellROX green fluorescence microscopy of intracellular ROS; format: cell-based; details: menadione-treated U251 cells, co-incubation for 45 min
Description: Western blots for XO and xanthine transporter were performed using 20 ng of protein extract from 14 cell lines. In vitro fluorescent microscopy using CellROX green was performed in U251 cells to evaluate intracellular reactive oxygen species (ROS) and the effect of xanthine as an ROS scavenger. 14 different cancer cell lines from renal, sarcoma, lung, prostate, breast, pancreatic, oral, epithelial cancer were also screened to evaluate expression of xanthine transporter and XO. In all the cells, a high expression of XO was observed, whereas xanthine transporter was variable between the cell lines, with the largest expression in U251 cells. Therefore, this cell line was used for further in vitro fluorescence experiments (FIG. 3).

[6] = target: T1, Xanthine Oxidase (XO) (Mus musculus, UniProt Q00519); experiment: In vitro oxidation of xanthine by XO in mouse liver extract with O2− (PMS/NADH system), 13C NMR; format: biochemical; details: 100 mg mouse liver extract, in the presence of O2−
T1 construct: from tissue; host or cells: mouse liver extract
Description: (§4) A preparation containing 0.15-0.2 M [2-^13C, 1,3-^15N2]-3,7-dihydro-1H-purine-2,6-dione (6, as described in Example 1) and the OX063 radical was hyperpolarized using a SPINlab hyperpolarizer. T1 measurements were performed using 1T Magritek Spectrometer. For the acquisition of hyperpolarized spectra, data was acquired with a 5 s repetition time and 15° excitation for a total of 45 s. In vitro enzymatic experiments to evaluate the activity of XO in oxidizing xanthine (XA) to uric acid (UA) using superoxide as a cofactor were performed using 100 mg of mouse liver extract together with a PMS/NADH+ system to generate O^2−. ^13C NMR spectra was acquired using a 14.1T NMR spectrometer.
(§5) Compound 6 was hyperpolarized. The ^13C chemical shift between hyperpolarized XA and hyperpolarized UA was measured and determined to be 0.8 ppm. After dissolution, spectra of compound 6 were obtained and fit to a mono-exponential decay function, correcting for flip angle, to determine the spin-lattice relaxation time. A T1 of 77±1.4 s was measured (FIG. 2).

[7] = Hyperpolarized T1 measurement of 13C,15N-xanthine at 1T; format: physicochemical; details: mono-exponential decay fit corrected for flip angle
Description: as §4, §5

T1 sequence (Q00519 whole entry): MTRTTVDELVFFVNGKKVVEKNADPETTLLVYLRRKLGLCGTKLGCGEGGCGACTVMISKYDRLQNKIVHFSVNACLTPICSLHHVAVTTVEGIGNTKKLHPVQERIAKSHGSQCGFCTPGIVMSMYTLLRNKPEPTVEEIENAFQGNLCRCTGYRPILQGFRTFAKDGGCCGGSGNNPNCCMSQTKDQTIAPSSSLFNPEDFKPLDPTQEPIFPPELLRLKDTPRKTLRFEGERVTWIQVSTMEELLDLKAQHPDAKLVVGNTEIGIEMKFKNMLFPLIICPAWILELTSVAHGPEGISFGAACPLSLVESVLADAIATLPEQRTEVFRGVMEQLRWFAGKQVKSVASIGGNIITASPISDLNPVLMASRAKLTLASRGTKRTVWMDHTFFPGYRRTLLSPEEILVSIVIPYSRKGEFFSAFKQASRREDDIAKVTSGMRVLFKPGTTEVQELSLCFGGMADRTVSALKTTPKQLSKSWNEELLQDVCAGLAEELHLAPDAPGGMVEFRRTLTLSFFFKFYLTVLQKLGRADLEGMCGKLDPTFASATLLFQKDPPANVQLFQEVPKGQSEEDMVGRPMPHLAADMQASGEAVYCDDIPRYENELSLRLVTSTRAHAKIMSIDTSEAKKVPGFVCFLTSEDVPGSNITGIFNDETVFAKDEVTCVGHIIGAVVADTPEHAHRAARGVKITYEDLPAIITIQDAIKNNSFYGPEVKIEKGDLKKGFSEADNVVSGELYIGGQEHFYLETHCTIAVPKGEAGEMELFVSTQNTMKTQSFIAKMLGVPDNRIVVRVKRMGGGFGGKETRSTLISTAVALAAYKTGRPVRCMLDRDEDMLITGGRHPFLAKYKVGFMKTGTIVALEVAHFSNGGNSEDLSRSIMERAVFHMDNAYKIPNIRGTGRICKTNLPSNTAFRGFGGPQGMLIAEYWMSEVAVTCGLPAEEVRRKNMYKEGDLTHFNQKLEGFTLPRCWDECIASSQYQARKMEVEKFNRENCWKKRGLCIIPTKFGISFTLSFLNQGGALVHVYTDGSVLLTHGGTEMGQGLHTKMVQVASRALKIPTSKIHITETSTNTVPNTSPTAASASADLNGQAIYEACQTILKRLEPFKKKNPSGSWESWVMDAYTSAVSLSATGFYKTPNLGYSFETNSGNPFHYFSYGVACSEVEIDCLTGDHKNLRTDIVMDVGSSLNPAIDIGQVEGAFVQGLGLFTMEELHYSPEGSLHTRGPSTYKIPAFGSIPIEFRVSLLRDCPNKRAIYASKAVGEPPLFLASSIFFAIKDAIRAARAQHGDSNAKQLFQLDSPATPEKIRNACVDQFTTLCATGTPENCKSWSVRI

Row | SMILES | T2 Value (s) D2O [1] | T2 Value (s) H2O [1] | T1 Value (s) D2O [2] | T1 Value (s) H2O [2] | T1 of the guanidine-carbon [3] | Hyperpolarized T1 Value (s) D2O [4] | oxidative stress (CellRox fluorescence) [5] | time to be oxidized in liver extracts [6] | T1 (spin-lattice relaxation time) [7] | Hyperpolarized T1 Value (s) H2O [4]
1 | N=[13C](N)NCCC[C@H](N)C(=O)O [Arginine ^13C, [6-^13C]-arginine] | 0.234 ± 0.004 s | 0.184 ± 0.003 s | 9.74 ± 0.32 s | 6.62 ± 0.22 s | could not be measured | 32.1 ± 4.5 s |  |  |  | 
2 | O=c1[15nH][13c](=O)[15nH]c2nc[nH]c12 [Compound 6, [2-^13C, 1,3-^15N2]-3,7-dihydro-1H-purine-2,6-dione] |  |  |  |  |  |  | reduced | less than 10 minutes | 77 ± 1.4 s | 
3 | N[C@@H](CC[13C]([15NH2])=O)C(=O)O [Compound 24, (5-13C, 5-15N) L-glutamine] | 4.66 ± 0.67 s | 3.35 ± 0.21 s | 12.29 ± 0.32 s | 10.79 ± 0.34 s |  | 31.2 ± 3.8 s |  |  |  | 23.6 ± 2.1 s
4 | N[C@@H](CC[13C](N)=O)C(=O)O [Glutamine ^13C, [5-^13C]-glutamine] | 0.455 ± 0.004 s | 0.354 ± 0.003 s | 12.34 ± 0.21 s | 10.66 ± 0.34 s |  | 34.1 ± 2.5 s |  |  |  | 21.8 ± 1.8 s
